In ChEMBL document CHEMBL5715954, “Silencing c-Myc translation as a therapeutic strategy through targeting PI3Kδ and CK1ε in hematological malignancies” (Blood, 2017):

Tests used:
Parameters in all cases: scale not given: the % may be the effect or the level left
[1] = biological target: Myosin-IIIa (Homo sapiens) (UniProt Q8NEV4); experiment: Inhibition of human MYO3A assessed as enzyme activity at 1 uM using myelin basic protein as substrate preincubated for 20 mins followed by [gamma-33P]-ATP addition and measured after 120 mins by radiometric Hot-SpotSM Kinase assay relative to control
[2] = biological target: T1, Homeodomain-interacting protein kinase 4 (Homo sapiens) (UniProt Q8NE63); experiment: Inhibition of human HIPK4 assessed as enzyme activity at 1 uM using myelin basic protein as substrate preincubated for 20 mins followed by [gamma-33P]-ATP addition and measured after 120 mins by radiometric Hot-SpotSM Kinase assay relative to control
T1 sequence (whole entry): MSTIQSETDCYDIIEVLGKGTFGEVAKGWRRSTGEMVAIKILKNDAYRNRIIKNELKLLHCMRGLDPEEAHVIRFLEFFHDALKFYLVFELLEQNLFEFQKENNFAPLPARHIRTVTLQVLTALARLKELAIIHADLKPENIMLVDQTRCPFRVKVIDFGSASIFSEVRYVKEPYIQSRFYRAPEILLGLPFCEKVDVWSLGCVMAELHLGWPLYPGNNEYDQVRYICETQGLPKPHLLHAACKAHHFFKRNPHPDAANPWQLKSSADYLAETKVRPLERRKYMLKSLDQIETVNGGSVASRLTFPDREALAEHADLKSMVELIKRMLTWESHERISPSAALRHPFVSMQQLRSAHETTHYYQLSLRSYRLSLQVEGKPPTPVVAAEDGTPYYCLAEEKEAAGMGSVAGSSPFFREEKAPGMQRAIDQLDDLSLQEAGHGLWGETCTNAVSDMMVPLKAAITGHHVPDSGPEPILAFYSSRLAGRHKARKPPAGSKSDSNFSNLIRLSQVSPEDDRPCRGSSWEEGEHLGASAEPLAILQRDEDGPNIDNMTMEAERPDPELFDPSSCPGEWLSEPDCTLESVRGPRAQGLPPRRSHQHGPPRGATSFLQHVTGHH

[3] = biological target: Cyclin-dependent kinase 1/cyclin B1 (Homo sapiens) (UniProt P06493+P14635); experiment: Inhibition of human CDK1/cyclin B assessed as enzyme activity at 1 uM using RB Protein as substrate preincubated for 20 mins followed by [gamma-33P]-ATP addition and measured after 120 mins by radiometric Hot-SpotSM Kinase assay relative to control; format: protein-complex assay
Chain of Cyclin-dependent kinase 1/cyclin B1 (Homo sapiens) (P06493 whole entry, looked up): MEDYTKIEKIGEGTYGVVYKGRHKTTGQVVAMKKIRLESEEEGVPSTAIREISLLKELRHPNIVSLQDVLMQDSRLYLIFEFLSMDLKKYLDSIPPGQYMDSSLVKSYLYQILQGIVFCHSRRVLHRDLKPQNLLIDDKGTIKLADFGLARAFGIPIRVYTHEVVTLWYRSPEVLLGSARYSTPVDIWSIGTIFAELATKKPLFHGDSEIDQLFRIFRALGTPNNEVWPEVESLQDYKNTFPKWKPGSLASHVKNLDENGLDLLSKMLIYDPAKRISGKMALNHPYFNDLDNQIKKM
Chain of Cyclin-dependent kinase 1/cyclin B1 (Homo sapiens) (P14635 whole entry, looked up): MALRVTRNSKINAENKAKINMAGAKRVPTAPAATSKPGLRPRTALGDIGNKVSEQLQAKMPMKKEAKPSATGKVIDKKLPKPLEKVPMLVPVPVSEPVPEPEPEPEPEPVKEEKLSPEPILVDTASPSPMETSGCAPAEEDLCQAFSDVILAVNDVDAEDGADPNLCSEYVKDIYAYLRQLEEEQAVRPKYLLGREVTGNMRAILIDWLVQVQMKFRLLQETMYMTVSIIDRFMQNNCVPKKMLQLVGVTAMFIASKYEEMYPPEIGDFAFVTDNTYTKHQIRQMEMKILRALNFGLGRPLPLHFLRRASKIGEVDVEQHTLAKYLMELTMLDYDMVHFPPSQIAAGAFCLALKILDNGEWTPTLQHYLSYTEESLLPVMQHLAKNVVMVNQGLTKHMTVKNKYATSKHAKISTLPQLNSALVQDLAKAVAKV

[4] = biological target: Receptor-interacting serine/threonine-protein kinase 2 (Homo sapiens) (UniProt O43353); experiment: Inhibition of human RIPK2 assessed as enzyme activity at 1 uM using myelin basic protein as substrate preincubated for 20 mins followed by [gamma-33P]-ATP addition and measured after 120 mins by radiometric Hot-SpotSM Kinase assay relative to control
Chain of Receptor-interacting serine/threonine-protein kinase 2 (Homo sapiens) (O43353 whole entry): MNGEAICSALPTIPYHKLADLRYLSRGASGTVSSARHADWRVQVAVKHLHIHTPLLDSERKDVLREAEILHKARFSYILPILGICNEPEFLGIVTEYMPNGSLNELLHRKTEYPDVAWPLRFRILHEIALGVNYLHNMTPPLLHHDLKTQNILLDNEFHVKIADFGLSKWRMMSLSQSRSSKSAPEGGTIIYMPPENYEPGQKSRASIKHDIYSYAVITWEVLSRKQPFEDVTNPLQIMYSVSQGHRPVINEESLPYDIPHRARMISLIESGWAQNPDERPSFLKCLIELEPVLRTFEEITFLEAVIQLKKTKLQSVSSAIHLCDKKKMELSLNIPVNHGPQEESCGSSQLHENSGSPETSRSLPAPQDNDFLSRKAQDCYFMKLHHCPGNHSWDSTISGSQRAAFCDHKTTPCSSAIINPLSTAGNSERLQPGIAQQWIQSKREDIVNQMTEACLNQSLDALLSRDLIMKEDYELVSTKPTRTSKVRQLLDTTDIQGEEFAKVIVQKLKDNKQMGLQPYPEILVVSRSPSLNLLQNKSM

[5] = biological target: T2, Mitogen-activated protein kinase 12 (Homo sapiens) (UniProt P53778); experiment: Inhibition of human P38g assessed as enzyme activity at 1 uM using myelin basic protein as substrate preincubated for 20 mins followed by [gamma-33P]-ATP addition and measured after 120 mins by radiometric Hot-SpotSM Kinase assay relative to control
T2 sequence (whole entry): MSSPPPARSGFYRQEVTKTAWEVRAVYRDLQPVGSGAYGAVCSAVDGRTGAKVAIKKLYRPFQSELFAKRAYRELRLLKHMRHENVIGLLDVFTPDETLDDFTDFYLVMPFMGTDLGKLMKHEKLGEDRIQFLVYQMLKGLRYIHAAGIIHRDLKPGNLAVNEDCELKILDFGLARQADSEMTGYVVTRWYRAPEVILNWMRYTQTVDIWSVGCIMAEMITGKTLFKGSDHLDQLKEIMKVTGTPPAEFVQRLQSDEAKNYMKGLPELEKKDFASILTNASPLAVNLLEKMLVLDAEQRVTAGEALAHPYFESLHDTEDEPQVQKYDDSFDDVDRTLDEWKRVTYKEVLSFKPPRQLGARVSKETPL

[6] = biological target: Death-associated protein kinase 3 (Homo sapiens) (UniProt O43293); experiment: Inhibition of human ZIPK assessed as enzyme activity at 1 uM using KKLNRTLSFAEPG as substrate preincubated for 20 mins followed by [gamma-33P]-ATP addition and measured after 120 mins by radiometric Hot-SpotSM Kinase assay relative to control
Chain of Death-associated protein kinase 3 (Homo sapiens) (O43293 whole entry, looked up): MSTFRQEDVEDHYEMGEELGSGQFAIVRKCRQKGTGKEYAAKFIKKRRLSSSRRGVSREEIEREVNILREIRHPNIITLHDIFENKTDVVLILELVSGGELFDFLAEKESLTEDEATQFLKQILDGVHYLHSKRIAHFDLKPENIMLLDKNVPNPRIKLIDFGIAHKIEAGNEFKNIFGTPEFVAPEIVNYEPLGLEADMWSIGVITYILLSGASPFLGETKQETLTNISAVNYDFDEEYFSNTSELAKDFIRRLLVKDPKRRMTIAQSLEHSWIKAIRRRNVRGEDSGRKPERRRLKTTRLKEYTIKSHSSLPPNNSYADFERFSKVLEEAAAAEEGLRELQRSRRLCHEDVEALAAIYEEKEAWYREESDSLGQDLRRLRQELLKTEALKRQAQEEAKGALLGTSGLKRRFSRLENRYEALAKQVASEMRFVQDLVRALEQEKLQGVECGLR

[7] = biological target: Serine/threonine-protein kinase 38 (Homo sapiens) (UniProt Q15208); experiment: Inhibition of human STK38 assessed as enzyme activity at 1 uM using KKRNRRLSVA as substrate preincubated for 20 mins followed by [gamma-33P]-ATP addition and measured after 120 mins by radiometric Hot-SpotSM Kinase assay relative to control
Chain of Serine/threonine-protein kinase 38 (Homo sapiens) (Q15208 2-465 limits assumed): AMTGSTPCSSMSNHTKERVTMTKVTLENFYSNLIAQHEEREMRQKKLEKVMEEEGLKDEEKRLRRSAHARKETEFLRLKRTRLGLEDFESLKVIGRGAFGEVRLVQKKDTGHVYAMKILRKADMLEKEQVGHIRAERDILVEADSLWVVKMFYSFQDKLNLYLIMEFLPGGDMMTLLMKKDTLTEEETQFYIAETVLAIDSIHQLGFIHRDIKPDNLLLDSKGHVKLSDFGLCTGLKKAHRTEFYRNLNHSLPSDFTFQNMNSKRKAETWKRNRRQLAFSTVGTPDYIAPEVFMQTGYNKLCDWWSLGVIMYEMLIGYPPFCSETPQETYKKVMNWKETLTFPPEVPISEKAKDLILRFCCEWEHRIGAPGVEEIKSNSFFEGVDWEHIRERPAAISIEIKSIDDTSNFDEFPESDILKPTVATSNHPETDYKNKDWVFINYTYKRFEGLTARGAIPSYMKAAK

[8] = biological target: Serine/threonine-protein kinase Nek7 (Homo sapiens) (UniProt Q8TDX7); experiment: Inhibition of human NEK7 assessed as enzyme activity at 1 uM using casein as substrate preincubated for 20 mins followed by [gamma-33P]-ATP addition and measured after 120 mins by radiometric Hot-SpotSM Kinase assay relative to control
Chain of Serine/threonine-protein kinase Nek7 (Homo sapiens) (Q8TDX7 whole entry, looked up): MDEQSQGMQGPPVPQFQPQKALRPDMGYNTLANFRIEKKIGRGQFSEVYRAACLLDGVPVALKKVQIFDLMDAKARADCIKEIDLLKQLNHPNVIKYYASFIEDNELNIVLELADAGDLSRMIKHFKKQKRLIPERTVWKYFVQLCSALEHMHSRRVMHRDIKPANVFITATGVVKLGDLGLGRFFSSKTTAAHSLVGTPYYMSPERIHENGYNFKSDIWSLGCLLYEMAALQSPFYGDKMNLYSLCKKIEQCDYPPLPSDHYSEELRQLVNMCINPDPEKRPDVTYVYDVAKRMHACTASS

[9] = biological target: CDC7/DBF4 (Cell division cycle 7-related protein kinase/Activator of S phase kinase) (Homo sapiens) (UniProt Q9UBU7+O00311); experiment: Inhibition of human CDC7/DBF4 assessed as enzyme activity at 1 uM using KTFCGTPEYLAPEVRREPRILSEEEQEMFRDFDYIADWC as substrate preincubated for 20 mins followed by [gamma-33P]-ATP addition and measured after 120 mins by radiometric Hot-SpotSM Kinase assay relative to control; format: protein-complex assay
Chain of CDC7/DBF4 (Cell division cycle 7-related protein kinase/Activator of S phase kinase) (Homo sapiens) (O00311 whole entry, looked up): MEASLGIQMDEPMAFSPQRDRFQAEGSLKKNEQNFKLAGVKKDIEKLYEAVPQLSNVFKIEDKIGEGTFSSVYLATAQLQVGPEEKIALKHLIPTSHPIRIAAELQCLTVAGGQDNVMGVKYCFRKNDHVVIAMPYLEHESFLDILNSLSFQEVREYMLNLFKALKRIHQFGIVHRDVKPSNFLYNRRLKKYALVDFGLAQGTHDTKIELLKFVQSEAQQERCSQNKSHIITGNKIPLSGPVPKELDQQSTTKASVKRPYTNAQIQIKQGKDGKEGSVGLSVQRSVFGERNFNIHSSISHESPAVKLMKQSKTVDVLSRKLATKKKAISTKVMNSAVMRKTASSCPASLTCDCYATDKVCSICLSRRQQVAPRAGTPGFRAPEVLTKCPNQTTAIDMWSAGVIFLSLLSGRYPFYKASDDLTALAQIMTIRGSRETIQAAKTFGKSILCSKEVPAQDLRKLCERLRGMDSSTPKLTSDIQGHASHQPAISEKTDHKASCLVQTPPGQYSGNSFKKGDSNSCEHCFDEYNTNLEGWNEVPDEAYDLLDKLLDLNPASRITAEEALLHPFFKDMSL
Chain of CDC7/DBF4 (Cell division cycle 7-related protein kinase/Activator of S phase kinase) (Homo sapiens) (Q9UBU7 whole entry, looked up): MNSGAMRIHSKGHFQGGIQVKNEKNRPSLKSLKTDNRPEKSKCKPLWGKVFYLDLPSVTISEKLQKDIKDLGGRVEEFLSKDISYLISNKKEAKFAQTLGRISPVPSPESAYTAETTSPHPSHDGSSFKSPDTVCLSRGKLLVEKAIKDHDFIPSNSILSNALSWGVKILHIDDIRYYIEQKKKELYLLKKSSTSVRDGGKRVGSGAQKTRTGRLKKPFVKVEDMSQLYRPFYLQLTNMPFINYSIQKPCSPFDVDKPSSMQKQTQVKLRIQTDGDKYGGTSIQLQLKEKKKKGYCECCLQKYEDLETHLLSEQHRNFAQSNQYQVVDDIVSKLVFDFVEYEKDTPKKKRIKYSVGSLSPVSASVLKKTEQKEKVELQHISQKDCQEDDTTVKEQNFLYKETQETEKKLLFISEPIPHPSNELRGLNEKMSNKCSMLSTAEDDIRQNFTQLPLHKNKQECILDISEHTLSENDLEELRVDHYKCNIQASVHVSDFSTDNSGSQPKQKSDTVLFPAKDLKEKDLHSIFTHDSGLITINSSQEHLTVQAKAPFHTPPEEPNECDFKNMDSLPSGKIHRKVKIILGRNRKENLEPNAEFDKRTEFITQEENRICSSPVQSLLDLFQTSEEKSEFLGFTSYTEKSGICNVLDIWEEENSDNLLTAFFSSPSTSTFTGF

[10] = biological target: Cyclin-dependent kinase 2/cyclin E1 (Homo sapiens) (UniProt P24864+P24941); experiment: Inhibition of human CDK2/cyclin E assessed as enzyme activity at 1 uM using RB Protein as substrate preincubated for 20 mins followed by [gamma-33P]-ATP addition and measured after 120 mins by radiometric Hot-SpotSM Kinase assay relative to control; format: protein-complex assay

C[C@H](Nc1ncnc2nc[nH]c12)c1cc2cccc(Cl)c2c(=O)n1-c1ccccc1
Activity [1]: 93.6% | Activity [2]: 98.9% | Activity [3]: 97% | Activity [4]: 92.2% | Activity [5]: 98.2% | Activity [6]: 107% | Activity [7]: 86.5% | Activity [8]: 100% | Activity [9]: 93.8% | Activity [10]: 95.6%

CC[C@H](Nc1ncnc2[nH]cnc12)c1nc2cccc(F)c2c(=O)n1-c1ccccc1
Activity [1]: 91.7% | Activity [2]: 92.9% | Activity [3]: 102% | Activity [4]: 96.5% | Activity [5]: 96.8% | Activity [6]: 99.3% | Activity [7]: 94.5% | Activity [8]: 97.3% | Activity [9]: 91.6% | Activity [10]: 96.2%

CC(C)Oc1ccc(-c2nn([C@@H](C)c3oc4ccc(F)cc4c(=O)c3-c3cccc(F)c3)c3ncnc(N)c23)cc1F [UMBRALISIB]
Activity [1]: 84.7% | Activity [2]: 113% | Activity [3]: 98.9% | Activity [4]: 94.2% | Activity [5]: 96.4% | Activity [6]: 103% | Activity [7]: 91.4% | Activity [8]: 85.4% | Activity [9]: 92% | Activity [10]: 99%
